Reference: patent publication US20230348418A1, “ISOINDOLINONE COMPOUNDS” (Monte Rosa Therapeutics, Inc., priority 2021, published 2023)
Where two headings read alike, the source gives them in different places.

Columns and labels:
[1] = test system: NCI-H526; assay: N-Myc-driven mouse xenograft model, human cell line NCI-H526 (FIG. 3D); type: in vivo
[2] = target: T1, SALL4 (Homo sapiens, UniProt Q9UJQ4); assay: SALL4 degradation in treated cells (FIG. 1A); type: cell-based; details: concentrations up to 30 µM
T1 construct: endogenous in cells

[3] = target: T2, GSPT1 (Homo sapiens, UniProt P15170+Q96SW2); assay: Quantitative proteomics analysis in ABC1 cells; type: cell-based; details: 100 nM, 6 hr
Experimental: Quantitative Proteomics Analysis: ABC1 cells were treated with either DMSO (2 replicates) or compound 10 at 100 nM (2 replicates) for 6 hr. Proteins were extracted with the PreOmics iST-NHS lysis buffer (#P.O.00030). The samples were then processed using the PreOmics kit following their recommended protocol with minor modifications. In brief, the proteins were reduced, alkylated and digested for 2 h at 37° C. The peptides were then labelled with TMT reagent (1:4; peptide:TMT label) (Thermo Fisher Scientific). After quenching, the peptides were purified, and the 16 samples were combined to a 1:1 ratio. […] Eluted TMT peptides were analyzed on an Orbitrap Eclipse mass spectrometer (Thermo Fisher Scientific). […] Precursors were fragmented by CID at a normalized collision energy (NCE) of 35% and analyzed in the ion trap. Following MS2, synchronous precursor selection (SPS) MS3 scans were collected by using high energy collision-induced dissociation (HCD) and fragments were analyzed using the Orbitrap (NCE 55%, AGC target 1×10^5, maximum injection time 120 ms, resolution 60,000). Protein identification and quantification were performed using Proteome Discoverer 2.4.0.305 with the SEQUEST algorithm and Uniprot human database (2021-01-29, 20614 protein sequences). […] Protein relative quantification was performed using an in-house developed java notebook. […]

[4] = target: T2, GSPT1; assay: relative levels of GSPT1 versus concentration (FIG. 2B); type: cell-based; set-up: endogenous in cells; host or cells: MM1S (ATCC CRL-2974); details: cell line not named
Experimental: (§1) GSPT1 was degraded by compound 10 after six hours of treatment in high N-Myc NCI-H1155 and ABC-1 cells with a DC50 of 3 nM and 22 nM, respectively (x-axys represents […]M concentration of compound 10; y-axis represents the viability in %).

[5] = test system: ABC-1; assay: viability of NSCLC cell line, high N-Myc (FIG. 2A); type: cell-based; details: ABC-1, high N-Myc; compared to low N-Myc EBC-1 and NCI-H2023
Experimental: as §1

[6] = target: T3, Full length wild-type cereblon CRBN (Homo sapiens, UniProt Q96SW2); assay: Fluorescence polarization (FP) assay, cereblon binding
T3 construct: Full length wild-type cereblon CRBN (80.0 nM, 10 μL) was incubated in assay buffer
Method in brief: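 Full-length wild-type human CRBN (80.0 nM) was preincubated with compound for 30 min at room temperature in 20 mM HEPES pH 8.0, 150 NaCl, 0.5 mM TCEP and 0.05% Tween 20. A Cy5-type thalidomide-linked fluorescent probe was then added. The FP signal was normalized to the DMSO control to derive IC50.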

T2 sequence (P15170 whole entry, the tested form may be a part): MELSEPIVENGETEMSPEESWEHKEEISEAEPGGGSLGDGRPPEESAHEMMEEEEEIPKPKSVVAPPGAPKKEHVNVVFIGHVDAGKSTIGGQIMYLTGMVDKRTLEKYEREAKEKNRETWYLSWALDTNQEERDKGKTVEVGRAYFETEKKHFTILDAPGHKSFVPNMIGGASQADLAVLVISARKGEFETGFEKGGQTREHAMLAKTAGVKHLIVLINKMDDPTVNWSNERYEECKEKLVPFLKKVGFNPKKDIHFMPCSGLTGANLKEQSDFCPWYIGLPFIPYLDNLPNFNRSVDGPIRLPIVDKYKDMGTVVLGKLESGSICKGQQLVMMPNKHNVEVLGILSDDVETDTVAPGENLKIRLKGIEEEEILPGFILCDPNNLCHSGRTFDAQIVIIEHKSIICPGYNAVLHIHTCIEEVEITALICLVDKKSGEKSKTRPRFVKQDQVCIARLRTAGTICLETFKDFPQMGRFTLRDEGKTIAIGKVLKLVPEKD
T2 sequence (Q96SW2 whole entry, the tested form may be a part): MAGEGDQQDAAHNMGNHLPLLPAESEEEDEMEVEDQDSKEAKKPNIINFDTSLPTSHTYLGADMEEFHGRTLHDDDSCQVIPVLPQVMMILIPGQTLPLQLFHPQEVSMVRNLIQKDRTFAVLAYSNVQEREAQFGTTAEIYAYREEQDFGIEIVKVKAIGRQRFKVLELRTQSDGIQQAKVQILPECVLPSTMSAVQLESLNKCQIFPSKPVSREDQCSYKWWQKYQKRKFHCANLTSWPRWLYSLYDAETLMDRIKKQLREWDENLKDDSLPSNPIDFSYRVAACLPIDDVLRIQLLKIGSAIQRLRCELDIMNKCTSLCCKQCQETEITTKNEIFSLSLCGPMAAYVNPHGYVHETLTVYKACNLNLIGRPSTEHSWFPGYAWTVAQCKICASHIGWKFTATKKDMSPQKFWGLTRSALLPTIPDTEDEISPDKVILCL
T2 sequence (Q16531 2-1140 partner limits assumed): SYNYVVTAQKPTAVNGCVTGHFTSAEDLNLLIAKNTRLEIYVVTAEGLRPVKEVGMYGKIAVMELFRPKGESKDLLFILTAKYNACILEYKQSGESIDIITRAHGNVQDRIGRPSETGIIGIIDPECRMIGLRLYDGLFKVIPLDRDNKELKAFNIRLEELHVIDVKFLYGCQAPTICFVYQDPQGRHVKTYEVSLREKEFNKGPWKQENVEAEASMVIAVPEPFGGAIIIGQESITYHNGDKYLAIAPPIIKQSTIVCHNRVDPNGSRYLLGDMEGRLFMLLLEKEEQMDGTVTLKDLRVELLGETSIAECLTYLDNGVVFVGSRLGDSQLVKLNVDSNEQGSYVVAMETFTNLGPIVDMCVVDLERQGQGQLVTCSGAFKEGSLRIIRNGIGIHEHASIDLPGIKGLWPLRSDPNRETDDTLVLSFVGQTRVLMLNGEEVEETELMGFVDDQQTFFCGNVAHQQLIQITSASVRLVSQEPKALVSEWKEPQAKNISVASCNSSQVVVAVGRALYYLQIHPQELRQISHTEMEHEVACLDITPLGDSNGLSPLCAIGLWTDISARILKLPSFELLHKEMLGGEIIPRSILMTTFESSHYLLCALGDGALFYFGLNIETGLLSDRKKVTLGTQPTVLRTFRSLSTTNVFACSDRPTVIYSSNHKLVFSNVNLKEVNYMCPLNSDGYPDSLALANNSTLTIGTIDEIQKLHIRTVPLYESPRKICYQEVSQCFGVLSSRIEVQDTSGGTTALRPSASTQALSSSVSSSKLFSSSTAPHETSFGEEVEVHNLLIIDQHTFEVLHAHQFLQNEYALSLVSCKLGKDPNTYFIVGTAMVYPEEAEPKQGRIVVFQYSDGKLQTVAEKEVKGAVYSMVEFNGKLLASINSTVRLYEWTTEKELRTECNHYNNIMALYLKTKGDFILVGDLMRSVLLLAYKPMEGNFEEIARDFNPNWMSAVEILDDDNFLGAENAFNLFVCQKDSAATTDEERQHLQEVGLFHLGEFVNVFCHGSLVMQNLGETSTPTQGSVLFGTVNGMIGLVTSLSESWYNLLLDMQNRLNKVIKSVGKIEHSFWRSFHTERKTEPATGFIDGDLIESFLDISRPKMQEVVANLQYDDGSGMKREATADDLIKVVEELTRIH
T3 sequence (Q96SW2 whole entry): as the sequence (Q96SW2 whole entry, the tested form may be a part) above
T1 sequence (Q96SW2 whole entry partner): as the sequence (Q96SW2 whole entry, the tested form may be a part) above
T1 sequence (Q16531 2-1140 partner limits assumed): as the sequence (Q16531 2-1140 partner limits assumed) above
T1 sequence (Q9UJQ4 whole entry): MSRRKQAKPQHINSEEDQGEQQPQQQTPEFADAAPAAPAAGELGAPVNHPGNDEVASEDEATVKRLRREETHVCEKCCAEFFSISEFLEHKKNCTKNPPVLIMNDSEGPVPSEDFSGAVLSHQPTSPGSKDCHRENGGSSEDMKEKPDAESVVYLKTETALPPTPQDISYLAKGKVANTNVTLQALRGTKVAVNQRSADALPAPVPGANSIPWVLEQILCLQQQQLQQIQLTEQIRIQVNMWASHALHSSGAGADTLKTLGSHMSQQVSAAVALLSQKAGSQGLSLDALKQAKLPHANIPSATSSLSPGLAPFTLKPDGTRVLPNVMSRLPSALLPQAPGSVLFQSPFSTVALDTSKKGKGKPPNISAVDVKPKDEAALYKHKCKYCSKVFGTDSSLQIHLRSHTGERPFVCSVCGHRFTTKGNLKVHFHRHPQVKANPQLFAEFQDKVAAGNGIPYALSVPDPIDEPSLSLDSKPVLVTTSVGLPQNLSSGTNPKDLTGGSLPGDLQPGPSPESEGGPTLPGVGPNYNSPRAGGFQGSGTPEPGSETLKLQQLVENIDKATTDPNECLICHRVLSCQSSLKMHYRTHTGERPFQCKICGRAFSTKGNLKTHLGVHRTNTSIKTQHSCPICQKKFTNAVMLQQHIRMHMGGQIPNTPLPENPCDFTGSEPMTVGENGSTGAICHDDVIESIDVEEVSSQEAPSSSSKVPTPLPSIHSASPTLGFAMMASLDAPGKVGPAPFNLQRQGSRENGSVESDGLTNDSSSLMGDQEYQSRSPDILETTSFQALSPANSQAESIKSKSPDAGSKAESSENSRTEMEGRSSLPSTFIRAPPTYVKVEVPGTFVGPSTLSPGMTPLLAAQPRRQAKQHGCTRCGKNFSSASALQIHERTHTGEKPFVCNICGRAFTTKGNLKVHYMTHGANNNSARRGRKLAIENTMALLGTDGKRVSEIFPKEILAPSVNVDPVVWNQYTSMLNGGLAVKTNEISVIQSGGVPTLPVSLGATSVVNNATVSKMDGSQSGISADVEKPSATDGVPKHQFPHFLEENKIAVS

Cc1ccc(NC(=O)OCc2ccc3c(c2)C(=O)N(C2CCC(=O)NC2=O)C3)cc1Cl (stereo not shown) [Compound 10]
tumor size (tumor volume) ([1]; 3 mg/kg once daily, PO): tumor size decreased and remained so until the end of the study | tumor size (tumor volume) ([1]; 6 mg/kg PO, five days on and nine days off): tumor size decreased and remained so until the end of the study | body weight ([1]; oral administration, NCI-H526 xenograft): no body weight loss observed | tumor growth (tumor volume) ([1]; oral administration, NCI-H526 xenograft, overall): tumor growth inhibition | degradation of SALL4 [2]: no induction of degradation | Protein downregulation in mass spectrometry-based proteomics (FIG. 1B) [3]: GSPT1 was the most statistically significant downregulated protein | GSPT1 degradation versus concentration [4]: concentration dependent manner | sensitivity to treatment (viability in %) [5]: highly sensitive | IC50 ([6]; bounds stated in the text lists b2059-b2061, read-out: IC50 value): < 1700 nM | IC50 ([6]; cereblon binding, class code, read-out: rFP IC50): 1100 to 1700 nM
